How the values were obtained:
dopaminergic D2LR = target: T1, dopaminergic D2LR (Homo sapiens, UniProt P14416); assay: Radioligand binding assay, D2LR, [3H]-Raclopride; settings: human D2L receptor stably expressed in HEK-293 cells; read-out: Ki D2 [3H]-Raclopride
T1 construct: expressed in transfected cells; host or cells: HEK-293

human serotonin 5-HT6R = target: T2, human serotonin 5-HT6R (Homo sapiens, UniProt P50406); assay: Radioligand binding assay, 5-HT6R, [3H]-LSD displacement; settings: human receptor stably expressed in HEK-293 cells; mean of at least two independent experiments; read-out: Ki 5-HT6 [3H]-LSD
T2 construct: expressed in transfected cells; host or cells: HEK-293
Protocol: Five selective radioligands were employed (Table 1).
Radioligand binding assays were used to determine the affinity of the synthesized compounds for human serotonin 5-HT6R, which were stably expressed in HEK-293 cells. […] Each compound was tested in triplicate at 7 to 8 different concentrations (10^−11 to 10^−4 M). The inhibition constants (Ki) were calculated using the Cheng–Prusoff equation [40], and the results are expressed as the mean of at least two independent experiments.

5-HT1A = target: T3, 5-HT1A (Homo sapiens, UniProt P08908); assay: Radioligand binding assay, 5-HT1A, [3H]-8-OH-DPAT; settings: human receptor stably expressed in HEK-293 cells
T3 construct: expressed in transfected cells; host or cells: HEK-293
T3 sequence (P08908 1-422): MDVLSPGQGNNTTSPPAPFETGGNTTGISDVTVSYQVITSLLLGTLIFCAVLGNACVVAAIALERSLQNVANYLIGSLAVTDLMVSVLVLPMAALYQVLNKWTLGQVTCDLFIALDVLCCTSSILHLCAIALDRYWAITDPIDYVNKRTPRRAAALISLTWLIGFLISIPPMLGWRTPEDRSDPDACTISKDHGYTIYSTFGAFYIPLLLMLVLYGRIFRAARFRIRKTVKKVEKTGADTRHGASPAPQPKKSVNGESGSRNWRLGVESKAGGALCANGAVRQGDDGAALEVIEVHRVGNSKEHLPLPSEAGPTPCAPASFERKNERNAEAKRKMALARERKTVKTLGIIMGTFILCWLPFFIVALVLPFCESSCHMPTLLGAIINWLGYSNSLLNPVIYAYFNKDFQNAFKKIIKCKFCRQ

5-HT2A = target: T4, 5-HT2A (Homo sapiens, UniProt P28223); assay: Radioligand binding assay, 5-HT2A, [3H]-Ketanserin; settings: human receptor stably expressed in HEK-293 cells
T4 construct: expressed in transfected cells; host or cells: HEK-293

5-HT7bR = target: T5, 5-HT7bR (Homo sapiens, UniProt P34969); assay: Radioligand binding assay, 5-HT7bR, [3H]-5-CT; settings: human 5-HT7b receptor stably expressed in HEK-293 cells; read-out: Ki 5-HT7 [3H]-5-CT
T5 construct: expressed in transfected cells; host or cells: HEK-293
T5 sequence (P34969 1-432 limits assumed): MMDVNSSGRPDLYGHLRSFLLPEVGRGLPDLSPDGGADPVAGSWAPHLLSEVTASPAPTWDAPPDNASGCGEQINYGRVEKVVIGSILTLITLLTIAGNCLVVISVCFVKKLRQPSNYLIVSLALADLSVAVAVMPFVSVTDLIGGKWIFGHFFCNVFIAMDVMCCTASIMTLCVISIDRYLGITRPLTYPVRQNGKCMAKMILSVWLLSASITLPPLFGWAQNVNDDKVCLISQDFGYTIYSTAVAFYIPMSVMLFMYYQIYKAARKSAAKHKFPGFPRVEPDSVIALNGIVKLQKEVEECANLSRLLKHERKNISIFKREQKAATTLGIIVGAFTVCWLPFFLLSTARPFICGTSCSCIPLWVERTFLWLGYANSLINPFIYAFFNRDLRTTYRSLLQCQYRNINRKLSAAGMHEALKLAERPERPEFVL

T1 sequence (P14416 whole entry): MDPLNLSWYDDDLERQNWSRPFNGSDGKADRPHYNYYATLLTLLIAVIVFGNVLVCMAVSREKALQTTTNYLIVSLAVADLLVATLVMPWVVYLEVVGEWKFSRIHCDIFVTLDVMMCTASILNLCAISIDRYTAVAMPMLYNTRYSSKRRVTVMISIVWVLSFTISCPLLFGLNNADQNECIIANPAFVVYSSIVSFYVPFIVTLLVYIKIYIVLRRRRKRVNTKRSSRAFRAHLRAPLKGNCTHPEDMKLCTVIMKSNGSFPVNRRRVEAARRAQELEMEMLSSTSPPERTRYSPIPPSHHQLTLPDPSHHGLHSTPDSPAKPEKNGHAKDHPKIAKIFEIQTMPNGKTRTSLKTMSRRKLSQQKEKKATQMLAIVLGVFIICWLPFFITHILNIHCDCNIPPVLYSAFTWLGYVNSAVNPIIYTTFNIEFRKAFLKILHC
T2 sequence (P50406 whole entry): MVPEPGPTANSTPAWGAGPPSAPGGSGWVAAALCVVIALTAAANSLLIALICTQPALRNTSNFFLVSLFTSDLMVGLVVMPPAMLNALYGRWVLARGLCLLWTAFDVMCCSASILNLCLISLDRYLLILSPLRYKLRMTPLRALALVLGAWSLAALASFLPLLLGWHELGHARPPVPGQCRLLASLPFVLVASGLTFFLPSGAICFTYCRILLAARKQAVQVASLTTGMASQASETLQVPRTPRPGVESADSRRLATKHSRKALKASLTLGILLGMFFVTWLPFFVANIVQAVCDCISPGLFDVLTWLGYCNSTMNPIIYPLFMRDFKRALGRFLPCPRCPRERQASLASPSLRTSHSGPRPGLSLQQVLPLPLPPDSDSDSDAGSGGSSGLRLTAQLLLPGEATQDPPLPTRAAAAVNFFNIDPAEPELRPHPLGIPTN
T4 sequence (P28223 whole entry): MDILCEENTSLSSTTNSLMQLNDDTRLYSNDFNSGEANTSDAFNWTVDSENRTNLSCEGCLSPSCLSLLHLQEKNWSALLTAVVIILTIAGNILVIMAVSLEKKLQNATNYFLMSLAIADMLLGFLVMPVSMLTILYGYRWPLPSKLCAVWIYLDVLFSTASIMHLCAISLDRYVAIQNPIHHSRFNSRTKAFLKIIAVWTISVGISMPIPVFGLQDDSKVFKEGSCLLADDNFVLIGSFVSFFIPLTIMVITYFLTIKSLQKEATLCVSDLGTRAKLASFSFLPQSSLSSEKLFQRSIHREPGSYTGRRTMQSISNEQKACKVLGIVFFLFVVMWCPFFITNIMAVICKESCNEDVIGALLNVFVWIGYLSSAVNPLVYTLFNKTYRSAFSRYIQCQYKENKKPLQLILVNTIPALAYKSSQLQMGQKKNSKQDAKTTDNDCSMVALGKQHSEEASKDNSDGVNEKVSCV

## CN1CCN(c2nc(N)nc(CN3C(=O)N(Cc4cc(Cl)ccc4Cl)C(C)(C)C3=O)n2)CC1 [Compound 11, 1-(2,5-Dichlorobenzyl)-3-((4-amino-6-(4-methylpiperazin-1-yl)-1,3,5-triazin-2-yl)methyl)-5,5-dimethylimidazolidine-2,4-dione]
Dopaminergic D2LR
  Ki: 2.87 µM
Human serotonin 5-HT6R
  Ki: 0.597 µM
5-HT1A
  Ki: 4.16 µM
5-HT2A
  Ki: 0.809 µM
5-HT7bR
  Ki: 0.279 µM

## CN1CCN(c2nc(N)nc(CN3C(=O)NC(C)(c4ccccc4)C3=O)n2)CC1 (stereo not shown) [Compound 19, 3-((4-Amino-6-(4-methylpiperazin-1-yl)-1,3,5-triazin-2-yl)methyl)-5-methyl-5-phenylimidazolidine-2,4-dione]
Dopaminergic D2LR
  Ki: 41 µM
Human serotonin 5-HT6R
  Ki: 0.726 µM
5-HT1A
  Ki: 31.6 µM
5-HT2A
  Ki: 12.1 µM
5-HT7bR
  Ki: 1.1 µM

## CN1CCN(c2nc(N)nc(CN3C(=O)N(Cc4cccc(F)c4)C(C)(C)C3=O)n2)CC1 [Compound 14, 1-(3-Fluorobenzyl)-3-((4-amino-6-(4-methylpiperazin-1-yl)-1,3,5-triazin-2-yl)methyl)-5,5-dimethylimidazolidine-2,4-dione]
Dopaminergic D2LR
  Ki: 6.58 µM
Human serotonin 5-HT6R
  Ki: 0.447 µM
5-HT1A
  Ki: 37.1 µM
5-HT2A
  Ki: 0.239 µM
5-HT7bR
  Ki: 0.088 µM

## CN1CCN(c2nc(N)nc(CN3C(=O)NC(C)(c4cccc(Cl)c4)C3=O)n2)CC1 (stereo not shown) [Compound 20, 3-((4-Amino-6-(4-methylpiperazin-1-yl)-1,3,5-triazin-2-yl)methyl)-5-(3-chlorophenyl)-5-methylimidazolidine-2,4-dione]
Dopaminergic D2LR
  Ki: 16.8 µM
Human serotonin 5-HT6R
  Ki: 0.418 µM
5-HT1A
  Ki: 4.1 µM
5-HT2A
  Ki: 7.4 µM
5-HT7bR
  Ki: 0.791 µM

## COc1cccc(CN2C(=O)N(Cc3nc(N)nc(N4CCN(C)CC4)n3)C(=O)C2(C)C)c1 [Compound 16, 1-(3-Methoxybenzyl)-3-((4-amino-6-(4-methylpiperazin-1-yl)-1,3,5-triazin-2-yl)methyl)-5,5-dimethylimidazolidine-2,4-dione]
Dopaminergic D2LR
  Ki: 15.5 µM
Human serotonin 5-HT6R
  Ki: 0.692 µM
5-HT1A
  Ki: 23.9 µM
5-HT2A
  Ki: 2.04 µM
5-HT7bR
  Ki: 3.59 µM

## CN1CCN(c2nc(N)nc(CN3C(=O)NC(C)(c4cc(Cl)ccc4Cl)C3=O)n2)CC1 (stereo not shown) [Compound 21, 3-((4-Amino-6-(4-methylpiperazin-1-yl)-1,3,5-triazin-2-yl)methyl)-5-(2,5-dichlorophenyl)-5-methylimidazolidine-2,4-dione]
Dopaminergic D2LR
  Ki: 11.5 µM
Human serotonin 5-HT6R
  Ki: 0.403 µM
5-HT1A
  Ki: 26.2 µM
5-HT2A
  Ki: 11.1 µM
5-HT7bR
  Ki: 1.56 µM

## CN1CCN(c2nc(N)nc(CN3C(=O)N(Cc4cccc(Br)c4)C(C)(C)C3=O)n2)CC1 [Compound 15, 1-(3-Bromobenzyl)-3-((4-amino-6-(4-methylpiperazin-1-yl)-1,3,5-triazin-2-yl)methyl)-5,5-dimethylimidazolidine-2,4-dione]
Dopaminergic D2LR
  Ki: 6.68 µM
Human serotonin 5-HT6R
  Ki: 0.57 µM
5-HT1A
  Ki: 12.9 µM
5-HT2A
  Ki: 1.33 µM
5-HT7bR
  Ki: 0.571 µM

## CN1CCN(c2nc(N)nc(CN3C(=O)NC(C)(c4ccc(Cl)cc4Cl)C3=O)n2)CC1 (stereo not shown) [Compound 22, 3-((4-Amino-6-(4-methylpiperazin-1-yl)-1,3,5-triazin-2-yl)methyl)-5-(2,4-dichlorophenyl)-5-methylimidazolidine-2,4-dione]
Dopaminergic D2LR
  Ki: 15.1 µM
Human serotonin 5-HT6R
  Ki: 0.457 µM
5-HT1A
  Ki: 14 µM
5-HT2A
  Ki: 10.8 µM
5-HT7bR
  Ki: 10.1 µM

## CN1CCN(c2nc(N)nc(CN3C(=O)N(Cc4ccccc4)C(C)(C)C3=O)n2)CC1 [Compound 9, 3-((4-Amino-6-(4-methylpiperazin-1-yl)-1,3,5-triazin-2-yl)methyl)-1-benzyl-5,5-dimethylimidazolidine-2,4-dione]
Dopaminergic D2LR
  Ki: 8.78 µM
Human serotonin 5-HT6R
  Ki: 0.592 µM
5-HT1A
  Ki: 42.6 µM
5-HT2A
  Ki: 1.6 µM
5-HT7bR
  Ki: 0.35 µM

## Cc1cccc(CN2C(=O)N(Cc3nc(N)nc(N4CCN(C)CC4)n3)C(=O)C2(C)C)c1 [Compound 17, 1-(3-Methylbenzyl)-3-((4-amino-6-(4-methylpiperazin-1-yl)-1,3,5-triazin-2-yl)methyl)-5,5-dimethylimidazolidine-2,4-dione]
Dopaminergic D2LR
  Ki: 5.21 µM
Human serotonin 5-HT6R
  Ki: 0.895 µM
5-HT1A
  Ki: 17 µM
5-HT2A
  Ki: 0.817 µM
5-HT7bR
  Ki: 0.42 µM

## CN1CCN(c2nc(N)nc(CN3C(=O)N(Cc4cccc(Cl)c4)C(C)(C)C3=O)n2)CC1 [Compound 10, 1-(3-Chlorobenzyl)-3-((4-amino-6-(4-methylpiperazin-1-yl)-1,3,5-triazin-2-yl)methyl)-5,5-dimethylimidazolidine-2,4-dione]
Dopaminergic D2LR
  Ki: 4.63 µM
Human serotonin 5-HT6R
  Ki: 0.271 µM
5-HT1A
  Ki: 13.6 µM
5-HT2A
  Ki: 0.328 µM
5-HT7bR
  Ki: 0.159 µM

## CN1CCN(c2nc(N)nc(CN3C(=O)N(Cc4ccc(F)cc4)C(C)(C)C3=O)n2)CC1 [Compound 13, 1-(4-Fluorobenzyl)-3-((4-amino-6-(4-methylpiperazin-1-yl)-1,3,5-triazin-2-yl)methyl)-5,5-dimethylimidazolidine-2,4-dione]
Dopaminergic D2LR
  Ki: 6.56 µM
Human serotonin 5-HT6R
  Ki: 0.663 µM
5-HT1A
  Ki: 48.4 µM
5-HT2A
  Ki: 3.55 µM
5-HT7bR
  Ki: 0.953 µM

## CN1CCN(c2nc(N)nc(CN3C(=O)NC(C)(C)C3=O)n2)CC1 [Compound 4]
Dopaminergic D2LR
  Ki: 22.3 µM
Human serotonin 5-HT6R
  Ki: 0.427 µM
5-HT7bR
  Ki: 35.8 µM

## CN1CCN(c2nc(N)nc(CN3C(=O)N(Cc4ccc(Cl)cc4Cl)C(C)(C)C3=O)n2)CC1 [Compound 12, 1-(2,4-Dichlorobenzyl)-3-((4-amino-6-(4-methylpiperazin-1-yl)-1,3,5-triazin-2-yl)methyl)-5,5-dimethylimidazolidine-2,4-dione]
Dopaminergic D2LR
  Ki: 0.681 µM
Human serotonin 5-HT6R
  Ki: 0.205 µM
5-HT1A
  Ki: 7.69 µM
5-HT2A
  Ki: 3.59 µM
5-HT7bR
  Ki: 1.12 µM

## Cc1ccc(C2(C)NC(=O)N(Cc3nc(N)nc(N4CCN(C)CC4)n3)C2=O)cc1 (stereo not shown) [Compound 24, 3-((4-Amino-6-(4-methylpiperazin-1-yl)-1,3,5-triazin-2-yl)methyl)-5-(4-methylphenyl)-5-methylimidazolidine-2,4-dione]
Dopaminergic D2LR
  Ki: 23.3 µM
Human serotonin 5-HT6R
  Ki: 0.667 µM
5-HT1A
  Ki: 22.3 µM
5-HT2A
  Ki: 24.4 µM
5-HT7bR
  Ki: 0.564 µM
